Measured values taken from the kinase profiling compilation of Christmann-Franck et al. (2016).

Assays:
Experiment in all cases: split-luciferase competition binding
RPS6KA1 KD1 (human) = RPS6KA1 KD1 (human) (UniProt Q15418); conditions: compound 10.0 µM
AURKC (human) = AURKC (human) (UniProt Q9UQB9); conditions: compound 10.0 µM
AURKA (human) = AURKA (human) (UniProt O14965); conditions: compound 10.0 µM
STK32B (human) = STK32B (human) (UniProt Q9NY57); conditions: compound 10.0 µM
PRKCH (human) = PRKCH (human) (UniProt P24723); conditions: compound 10.0 µM
PKN1 (human) = PKN1 (human) (UniProt Q16512); conditions: compound 10.0 µM
RPS6KA5 KD1 (human) = RPS6KA5 KD1 (human) (UniProt O75582); conditions: compound 10.0 µM
PRKACA (mouse) = conditions: compound 10.0 µM; accession and sequence are those of the human protein
SGK3 (human) = SGK3 (human) (UniProt Q96BR1); conditions: compound 10.0 µM
RPS6KA2 KD1 (human) = RPS6KA2 KD1 (human) (UniProt Q15349); conditions: compound 10.0 µM
RPS6KA6 KD1 (human) = RPS6KA6 KD1 (human) (UniProt Q9UK32); conditions: compound 10.0 µM
PRKCG (human) = PRKCG (human) (UniProt P05129); conditions: compound 10.0 µM
AKT2 (human) = AKT2 (human) (UniProt P31751); conditions: compound 10.0 µM
DMPK (human) = DMPK (human) (UniProt Q09013); conditions: compound 10.0 µM
SGK2 (human) = SGK2 (human) (UniProt Q9HBY8); conditions: compound 10.0 µM
AKT3 (human) = AKT3 (human) (UniProt Q9Y243); conditions: compound 10.0 µM
PRKCD (human) = PRKCD (human) (UniProt Q05655); conditions: compound 10.0 µM
RPS6KA4 KD1 (human) = RPS6KA4 KD1 (human) (UniProt O75676); conditions: compound 10.0 µM
PRKCI (human) = PRKCI (human) (UniProt P41743); conditions: compound 10.0 µM
PDPK1 (human) = PDPK1 (human) (UniProt O15530); conditions: compound 10.0 µM
PRKCQ (human) = PRKCQ (human) (UniProt Q04759); conditions: compound 10.0 µM
AURKB (human) = AURKB (human) (UniProt Q96GD4); conditions: compound 10.0 µM
PRKCE (human) = PRKCE (human) (UniProt Q02156); conditions: compound 10.0 µM
RPS6KA3 KD1 (human) = RPS6KA3 KD1 (human) (UniProt P51812); conditions: compound 10.0 µM
AKT1 (human) = AKT1 (human) (UniProt P31749); conditions: compound 10.0 µM
PRKX (human) = PRKX (human) (UniProt P51817); conditions: compound 10.0 µM
PRKACB (human) = PRKACB (human) (UniProt P22694); conditions: compound 10.0 µM

Chain of PKN1 (human) (Q16512 whole entry, looked up): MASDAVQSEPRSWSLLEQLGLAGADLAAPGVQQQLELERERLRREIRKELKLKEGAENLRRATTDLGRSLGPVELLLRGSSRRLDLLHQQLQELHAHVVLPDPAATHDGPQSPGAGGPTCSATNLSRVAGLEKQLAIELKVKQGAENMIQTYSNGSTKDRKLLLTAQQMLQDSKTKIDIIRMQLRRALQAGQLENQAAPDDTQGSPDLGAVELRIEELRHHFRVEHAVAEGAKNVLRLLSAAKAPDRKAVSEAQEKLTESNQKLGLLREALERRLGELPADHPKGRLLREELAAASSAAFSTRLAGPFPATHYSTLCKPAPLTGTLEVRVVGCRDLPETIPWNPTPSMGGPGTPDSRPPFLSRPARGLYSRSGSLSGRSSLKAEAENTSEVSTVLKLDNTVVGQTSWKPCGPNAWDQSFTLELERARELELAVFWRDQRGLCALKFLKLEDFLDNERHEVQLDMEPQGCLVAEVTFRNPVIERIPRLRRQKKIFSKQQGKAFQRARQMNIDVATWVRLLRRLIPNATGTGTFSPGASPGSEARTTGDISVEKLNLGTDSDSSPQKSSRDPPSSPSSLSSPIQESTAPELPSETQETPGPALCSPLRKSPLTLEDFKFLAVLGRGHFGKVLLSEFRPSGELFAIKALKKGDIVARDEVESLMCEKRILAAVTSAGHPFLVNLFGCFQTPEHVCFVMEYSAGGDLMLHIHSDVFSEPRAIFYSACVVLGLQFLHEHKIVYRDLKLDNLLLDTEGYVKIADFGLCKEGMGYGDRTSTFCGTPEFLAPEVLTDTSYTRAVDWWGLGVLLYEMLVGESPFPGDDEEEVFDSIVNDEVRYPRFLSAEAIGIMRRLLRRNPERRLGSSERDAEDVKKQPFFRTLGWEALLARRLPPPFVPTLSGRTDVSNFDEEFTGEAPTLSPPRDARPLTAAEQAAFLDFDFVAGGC
Chain of PRKCH (human) (P24723 whole entry, looked up): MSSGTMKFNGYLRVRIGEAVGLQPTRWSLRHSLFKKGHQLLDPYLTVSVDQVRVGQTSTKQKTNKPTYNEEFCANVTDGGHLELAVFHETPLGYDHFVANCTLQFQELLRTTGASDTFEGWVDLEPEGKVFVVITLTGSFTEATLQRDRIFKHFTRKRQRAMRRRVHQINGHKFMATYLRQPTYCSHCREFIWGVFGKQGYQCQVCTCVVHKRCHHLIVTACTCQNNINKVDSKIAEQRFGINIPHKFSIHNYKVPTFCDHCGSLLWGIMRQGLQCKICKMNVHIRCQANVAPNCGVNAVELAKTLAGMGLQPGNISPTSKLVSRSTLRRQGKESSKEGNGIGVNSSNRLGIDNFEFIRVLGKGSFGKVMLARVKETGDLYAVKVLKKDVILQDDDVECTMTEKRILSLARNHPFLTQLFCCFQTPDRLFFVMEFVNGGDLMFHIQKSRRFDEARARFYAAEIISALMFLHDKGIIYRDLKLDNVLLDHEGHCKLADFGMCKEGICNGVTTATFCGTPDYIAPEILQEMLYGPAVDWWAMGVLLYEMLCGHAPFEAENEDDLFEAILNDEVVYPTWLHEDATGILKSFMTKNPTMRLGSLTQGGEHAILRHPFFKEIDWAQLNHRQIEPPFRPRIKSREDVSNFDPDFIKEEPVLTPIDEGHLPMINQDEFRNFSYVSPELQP
Chain of RPS6KA1 KD1 (human) (Q15418 whole entry, looked up): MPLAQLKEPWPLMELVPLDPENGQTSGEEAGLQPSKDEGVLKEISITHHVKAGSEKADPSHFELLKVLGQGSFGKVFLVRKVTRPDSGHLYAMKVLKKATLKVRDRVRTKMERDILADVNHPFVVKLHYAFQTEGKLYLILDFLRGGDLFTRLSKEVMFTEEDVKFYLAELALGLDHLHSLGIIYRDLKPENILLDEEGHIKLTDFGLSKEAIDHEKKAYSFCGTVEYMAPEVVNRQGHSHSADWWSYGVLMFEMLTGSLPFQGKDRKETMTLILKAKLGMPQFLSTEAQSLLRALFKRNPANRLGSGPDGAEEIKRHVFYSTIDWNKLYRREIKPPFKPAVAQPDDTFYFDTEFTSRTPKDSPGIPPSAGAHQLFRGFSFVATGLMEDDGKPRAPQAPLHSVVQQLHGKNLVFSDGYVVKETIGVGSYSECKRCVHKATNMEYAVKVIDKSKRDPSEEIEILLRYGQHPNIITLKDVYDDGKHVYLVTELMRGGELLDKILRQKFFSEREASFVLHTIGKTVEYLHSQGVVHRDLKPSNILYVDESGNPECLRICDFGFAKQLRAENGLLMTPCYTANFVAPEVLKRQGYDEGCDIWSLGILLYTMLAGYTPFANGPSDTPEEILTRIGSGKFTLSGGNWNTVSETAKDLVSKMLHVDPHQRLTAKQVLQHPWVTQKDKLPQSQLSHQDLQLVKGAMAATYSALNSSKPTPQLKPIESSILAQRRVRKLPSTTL
Chain of PDPK1 (human) (O15530 whole entry, looked up): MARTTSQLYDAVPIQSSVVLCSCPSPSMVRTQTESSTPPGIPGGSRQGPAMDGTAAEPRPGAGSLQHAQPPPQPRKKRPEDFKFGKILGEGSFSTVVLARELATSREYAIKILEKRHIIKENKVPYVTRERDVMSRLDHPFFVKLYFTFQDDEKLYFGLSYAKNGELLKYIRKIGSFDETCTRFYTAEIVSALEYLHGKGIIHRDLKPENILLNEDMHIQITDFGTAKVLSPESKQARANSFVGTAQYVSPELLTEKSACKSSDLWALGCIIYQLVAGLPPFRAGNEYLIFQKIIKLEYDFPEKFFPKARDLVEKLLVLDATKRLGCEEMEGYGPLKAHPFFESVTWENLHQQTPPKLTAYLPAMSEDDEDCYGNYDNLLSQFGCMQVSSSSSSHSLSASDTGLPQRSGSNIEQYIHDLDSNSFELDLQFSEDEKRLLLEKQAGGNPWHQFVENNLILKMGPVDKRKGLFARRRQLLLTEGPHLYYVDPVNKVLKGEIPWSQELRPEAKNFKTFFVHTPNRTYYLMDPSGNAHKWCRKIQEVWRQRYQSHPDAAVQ
Chain of DMPK (human) (Q09013 whole entry, looked up): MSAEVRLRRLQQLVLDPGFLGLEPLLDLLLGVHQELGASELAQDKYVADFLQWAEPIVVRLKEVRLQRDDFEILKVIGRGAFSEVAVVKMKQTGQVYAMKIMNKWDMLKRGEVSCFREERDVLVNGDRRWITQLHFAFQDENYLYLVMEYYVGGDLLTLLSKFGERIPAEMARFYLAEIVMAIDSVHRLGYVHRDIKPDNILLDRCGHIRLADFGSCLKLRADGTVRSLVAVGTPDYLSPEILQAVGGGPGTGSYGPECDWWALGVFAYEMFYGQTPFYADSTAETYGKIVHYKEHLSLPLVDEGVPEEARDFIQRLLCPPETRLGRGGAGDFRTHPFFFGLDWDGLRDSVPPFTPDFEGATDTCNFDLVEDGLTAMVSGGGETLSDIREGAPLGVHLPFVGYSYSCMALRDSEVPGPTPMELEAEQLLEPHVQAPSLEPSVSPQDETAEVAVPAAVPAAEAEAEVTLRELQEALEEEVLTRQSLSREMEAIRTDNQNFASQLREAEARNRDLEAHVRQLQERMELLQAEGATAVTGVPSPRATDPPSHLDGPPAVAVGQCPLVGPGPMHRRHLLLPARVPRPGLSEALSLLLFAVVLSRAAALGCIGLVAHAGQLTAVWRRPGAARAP
Chain of PRKCQ (human) (Q04759 whole entry, looked up): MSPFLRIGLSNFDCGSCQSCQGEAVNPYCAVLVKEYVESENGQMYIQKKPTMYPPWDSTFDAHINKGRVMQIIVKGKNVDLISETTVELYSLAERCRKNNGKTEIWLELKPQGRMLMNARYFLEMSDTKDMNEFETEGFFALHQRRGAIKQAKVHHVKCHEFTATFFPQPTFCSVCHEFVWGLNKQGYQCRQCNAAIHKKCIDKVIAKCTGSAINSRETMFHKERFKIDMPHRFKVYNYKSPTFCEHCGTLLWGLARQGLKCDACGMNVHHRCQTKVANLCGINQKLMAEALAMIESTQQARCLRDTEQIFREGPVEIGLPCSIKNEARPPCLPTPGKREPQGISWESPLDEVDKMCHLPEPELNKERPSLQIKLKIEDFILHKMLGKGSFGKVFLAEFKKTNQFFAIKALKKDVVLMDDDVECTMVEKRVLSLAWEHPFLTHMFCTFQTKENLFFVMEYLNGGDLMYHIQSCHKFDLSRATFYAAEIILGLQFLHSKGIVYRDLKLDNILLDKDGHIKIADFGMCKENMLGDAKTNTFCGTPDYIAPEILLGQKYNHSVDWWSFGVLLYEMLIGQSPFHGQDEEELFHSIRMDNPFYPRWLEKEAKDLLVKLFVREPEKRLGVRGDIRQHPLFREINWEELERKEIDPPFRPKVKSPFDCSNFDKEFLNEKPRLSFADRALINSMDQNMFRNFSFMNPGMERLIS
Chain of AKT2 (human) (P31751 whole entry, looked up): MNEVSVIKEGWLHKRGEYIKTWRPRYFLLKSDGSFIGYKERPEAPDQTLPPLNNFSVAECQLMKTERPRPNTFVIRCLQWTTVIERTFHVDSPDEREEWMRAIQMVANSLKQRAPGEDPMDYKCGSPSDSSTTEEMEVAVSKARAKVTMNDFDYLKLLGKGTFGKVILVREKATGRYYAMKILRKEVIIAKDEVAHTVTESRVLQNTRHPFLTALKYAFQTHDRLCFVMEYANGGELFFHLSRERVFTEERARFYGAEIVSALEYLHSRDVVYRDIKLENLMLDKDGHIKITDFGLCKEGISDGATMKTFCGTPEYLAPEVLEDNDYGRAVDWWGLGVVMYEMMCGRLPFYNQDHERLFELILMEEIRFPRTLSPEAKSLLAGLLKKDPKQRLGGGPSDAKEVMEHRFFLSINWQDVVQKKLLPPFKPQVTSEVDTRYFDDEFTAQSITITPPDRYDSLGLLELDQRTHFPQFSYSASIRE
Chain of AURKC (human) (Q9UQB9 whole entry, looked up): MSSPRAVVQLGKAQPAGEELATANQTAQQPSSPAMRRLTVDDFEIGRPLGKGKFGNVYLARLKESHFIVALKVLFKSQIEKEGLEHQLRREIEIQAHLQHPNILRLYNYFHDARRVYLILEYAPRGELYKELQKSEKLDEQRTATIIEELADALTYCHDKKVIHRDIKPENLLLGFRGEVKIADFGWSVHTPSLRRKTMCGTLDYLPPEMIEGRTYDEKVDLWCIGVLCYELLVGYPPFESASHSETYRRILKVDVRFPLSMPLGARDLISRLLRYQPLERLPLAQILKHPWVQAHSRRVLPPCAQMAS

| SMILES | inhibition (RPS6KA1 KD1 (human)) | inhibition (AURKC (human)) | inhibition (AURKA (human)) | inhibition (STK32B (human)) | inhibition (PRKCH (human)) | inhibition (PKN1 (human)) | inhibition (RPS6KA5 KD1 (human)) | inhibition (PRKACA (mouse)) | inhibition (SGK3 (human)) | inhibition (RPS6KA2 KD1 (human)) | inhibition (RPS6KA6 KD1 (human)) | inhibition (PRKCG (human)) | inhibition (AKT2 (human)) | inhibition (DMPK (human)) | inhibition (SGK2 (human)) | inhibition (AKT3 (human)) | inhibition (PRKCD (human)) | inhibition (RPS6KA4 KD1 (human)) | inhibition (PRKCI (human)) | inhibition (PDPK1 (human)) | further results |
| --- | --- | --- | --- | --- | --- | --- | --- | --- | --- | --- | --- | --- | --- | --- | --- | --- | --- | --- | --- | --- | --- |
| O=S(=O)(c1cccc2c(O)nccc12)N1CCCNCC1 | 0% | 5% | 0% | 0% | 0% | 6% | 0% | 19% | 0% | 0% | 0% | 0% | 0% | 0% | 0% | 0% | 0% | 0% | 37% | 0% | inhibition (PRKCQ (human)): 15%; inhibition (AURKB (human)): 14%; inhibition (PRKCE (human)): 0%; inhibition (RPS6KA3 KD1 (human)): 0%; inhibition (AKT1 (human)): 0%; inhibition (PRKX (human)): 53%; inhibition (PRKACB (human)): 0% |
| O=c1cc(N2CCOCC2)oc2c1ccc1ccccc12 | 0% | 14% | 0% | 0% | 0% | 0% | 1% | 0% | 0% | 0% | 0% | 3% | 0% | 0% | 0% | 0% | 0% | 0% | 0% | 0% | inhibition (PRKCQ (human)): 0%; inhibition (AURKB (human)): 7%; inhibition (PRKCE (human)): 6%; inhibition (RPS6KA3 KD1 (human)): 0%; inhibition (AKT1 (human)): 0%; inhibition (PRKX (human)): 0%; inhibition (PRKACB (human)): 0% |

More lines, main results first:

| inhibition (RPS6KA1 KD1 (human)) | inhibition (AURKC (human)) | inhibition (AURKA (human)) | inhibition (STK32B (human)) | inhibition (PRKCH (human)) | inhibition (PKN1 (human)) | inhibition (RPS6KA5 KD1 (human)) | inhibition (PRKACA (mouse)) | inhibition (SGK3 (human)) | inhibition (RPS6KA2 KD1 (human)) | inhibition (RPS6KA6 KD1 (human)) | inhibition (PRKCG (human)) | inhibition (AKT2 (human)) | inhibition (DMPK (human)) | inhibition (SGK2 (human)) | inhibition (AKT3 (human)) | inhibition (PRKCD (human)) | inhibition (RPS6KA4 KD1 (human)) | inhibition (PRKCI (human)) | inhibition (PDPK1 (human)) | SMILES | further results |
| --- | --- | --- | --- | --- | --- | --- | --- | --- | --- | --- | --- | --- | --- | --- | --- | --- | --- | --- | --- | --- | --- |
| 20% | 0% | 0% | 0% | 0% | 0% | 0% | 0% | 0% | 0% | 0% | 0% | 0% | 0% | 0% | 0% | 2% | 0% | 0% | 0% | CC[C@@H](CO)Nc1nc(NCc2ccccc2)c2ncn(C(C)C)c2n1 | inhibition (PRKCQ (human)): 0%; inhibition (AURKB (human)): 0%; inhibition (PRKCE (human)): 0%; inhibition (RPS6KA3 KD1 (human)): 0%; inhibition (AKT1 (human)): 0%; inhibition (PRKX (human)): 0%; inhibition (PRKACB (human)): 0% |
| 0% | 5% | 0% | 0% | 0% | 0% | 0% | 0% | 0% | 0% | 0% | 0% | 0% | 0% | 0% | 0% | 0% | 0% | 0% | 0% | O=c1cc(N2CCOCC2)nc2c3ccccc3ccn12 | inhibition (PRKCQ (human)): 0%; inhibition (AURKB (human)): 0%; inhibition (PRKCE (human)): 6%; inhibition (RPS6KA3 KD1 (human)): 0%; inhibition (AKT1 (human)): 0%; inhibition (PRKX (human)): 0%; inhibition (PRKACB (human)): 0% |
| 65% | 0% | 0% | 4% | 0% | 0% | 2% | 7% | 0% | 48% | 19% | 0% | 0% | 11% | 0% | 0% | 0% | 12% | 0% | 0% | CC(C)[C@H](CO)Nc1nc(Nc2cccc(Cl)c2)c2ncn(C(C)C)c2n1 | inhibition (PRKCQ (human)): 0%; inhibition (AURKB (human)): 0%; inhibition (PRKCE (human)): 2%; inhibition (RPS6KA3 KD1 (human)): 41%; inhibition (AKT1 (human)): 0%; inhibition (PRKX (human)): 0%; inhibition (PRKACB (human)): 0% |
| 0% | 0% | 0% | 0% | 0% | 0% | 2% | 1% | 0% | 0% | 0% | 0% | 0% | 0% | 0% | 0% | 0% | 0% | 0% | 1% | CC(C)N(CCC(=O)c1ccc2ccccc2c1)Cc1ccccc1 | inhibition (PRKCQ (human)): 0%; inhibition (AURKB (human)): 0%; inhibition (PRKCE (human)): 0%; inhibition (RPS6KA3 KD1 (human)): 0%; inhibition (AKT1 (human)): 0%; inhibition (PRKX (human)): 0%; inhibition (PRKACB (human)): 0% |
